Measured values published in ChEMBL document CHEMBL4130409, “Gordonic Acid, a Polyketide Glycoside Derived from Bacterial Coculture of Streptomyces and Gordonia Species” (J Nat Prod, 2017).

Columns and labels:
Gordonia sp. = assay: Growth inhibition of Gordonia sp. KMC005 after 18 to 36 hrs by agar diffusion method
Streptomyces tendae = assay: Growth inhibition of Streptomyces tendae KMC006 after 18 to 36 hrs by agar diffusion method; assay type: organism-based; details: in vivo
Micrococcus luteus = assay: Antibacterial activity against Micrococcus luteus KCCM 11548 assessed as zone of inhibition at 10 microg/disk after 18 to 36 hrs by agar diffusion method; assay type: functional; details: read-out: DIZ
Enterococcus hirae = assay: Antibacterial activity against Enterococcus hirae KCCM 11768 assessed as zone of inhibition at 10 microg/disk after 18 to 36 hrs by agar diffusion method; assay type: functional; details: read-out: DIZ

Compound | Activity (Gordonia sp.) | Activity (Streptomyces tendae) | zone of inhibition at 10 µg/disc (Micrococcus luteus) [mm] | zone of inhibition at 10 µg/disc (Enterococcus hirae) [mm]
CC(/C=C/C=C/C=C/C=C/C(=O)O)=C\[C@@H](C)[C@@H](O[C@H]1C[C@H](O)[C@H](O)[C@@H](C)O1)C(C)C | Non-Toxic | Non-Toxic | 2.5 | 1.5
CC1(C)S[C@@H]2[C@H](NC(=O)[C@H](N)c3ccccc3)C(=O)N2[C@H]1C(=O)O [AMPICILLIN] |  |  | 10 | 8
CC(/C=C/C=C/C=C/C=C/C(O)=C1\C(=O)[C@H](CCC(=O)O)N(C)C1=O)=C\[C@@H](C)[C@@H](O[C@H]1C[C@H](O)[C@H](O)[C@@H](C)O1)C(C)C | Non-Toxic | Non-Toxic |  | 
